In general, IC50 refers to the concentration that inhibits the measured activity by half. The term GI50 denotes the concentration at which growth is held to half of that of the control.

In one data set the test system is Hep 3B2. As to the kind of experiment: Anticancer activity against human Hep3B cells by CCK8 assay. The class given is functional, cell-based. Background: Tetrazolium dyes change colour on reduction, which living cells bring about.
In data set [1] the test system is HepG2. As to the kind of experiment: Anticancer activity against human HepG2 cells by CCK8 assay. The data set is classed as functional, cell-based.
The test system of the next data set is OVCAR-3. Briefly: Anticancer activity against human OVCAR3 cells by CCK8 assay. The class given is functional, cell-based.
In the next data set the test system is A2780. As to the kind of experiment: Anticancer activity against human A2780 cells by CCK8 assay. The class given is functional, cell-based.
The subject of data set [2] is HepG2. As to the kind of experiment: Cytotoxicity against human HepG2 cells assessed as reduction in cell viability by MTT assay. The data set is classed as functional, cell-based.
A short description of data set [3]: Toxicity in mouse assessed as mouse survival (reference value: 14.5 days). The conditions noted are these: in vivo, 348 h.
The subject of data set [4] is MCF7. As to the kind of experiment: Cytotoxicity against human MCF7 cells assessed as reduction in cell viability by MTT assay. The data set is classed as functional, cell-based.
Data set [5] deals with HepG2. As to the kind of experiment: Cytotoxicity against human HepG2 cells assessed as reduction in cell viability after 48 hrs by MTT assay. The class given is functional, cell-based. The settings on record: HepG2, 48 h.
Data set [6] has as its system MCF7. Briefly: Cytotoxicity against human MCF7 cells assessed as reduction in cell viability after 48 hrs by MTT assay. The data set is classed as functional, cell-based. The settings on record: MCF7, 48 h.
The test system of data set [7] is MCF7. Briefly: Cytotoxicity against human MCF7 cells assessed as reduction in cell viability. The data set is classed as functional, cell-based.
The subject of data set [8] is HeLa. Briefly: Cytotoxicity against human HeLa cells assessed as reduction in cell viability by MTT assay. The data set is classed as functional, cell-based.
Another data set has as its system COS-7. Briefly: Cytotoxicity against African green monkey COS7 cells assessed as reduction in cell viability by MTT assay. The data set is classed as functional, cell-based. The conditions noted are these: Chlorocebus aethiops.
A further data set relates to Caco-2. As to the kind of experiment: Cytotoxicity against human Caco2 cells assessed as reduction in cell viability after 72 hrs by MTT assay. The class given is functional, cell-based. The conditions noted are these: Caco-2, 72 h.
In a further data set the test system is K562. Briefly: Cytotoxicity against human K562 cells assessed as reduction in cell viability after 72 hrs by MTT assay. The conditions noted are these: K562, 72 h. The data set is classed as functional, cell-based.
The subject of data set [9] is HeLa. Briefly: Cytotoxicity against human HeLa cells assessed as reduction in cell viability after 72 hrs by MTT assay. The class given is functional, cell-based.
A further data set concerns SK-OV-3. Briefly: Growth inhibition of human SKOV3 cells. The data set is classed as functional.
Another data set concerns SNU1. As to the kind of experiment: Growth inhibition of human SNU1 cells. The class given is functional.
Data set [10] deals with PANC-1. Briefly: Growth inhibition of human PANC1 cells. The class given is functional.
The subject of another data set is T-24. As to the kind of experiment: Growth inhibition of human T24 cells. The class given is functional.
The next data set deals with SN12C. As to the kind of experiment: Growth inhibition of human SN12C cells. The class given is functional.
Data set [11] relates to MCF7. Briefly: Growth inhibition of human MCF7 cells. The data set is classed as functional.
A further data set has as its system BXPC-3. Briefly: Growth inhibition of human BxPC3 cells. The data set is classed as functional.
Data set [12] deals with HepG2. Briefly: Growth inhibition of human HepG2 cells. The data set is classed as functional.
The test system of the next data set is AGS. As to the kind of experiment: Growth inhibition of human AGS cells. The data set is classed as functional.
The subject of another data set is WiDr. As to the kind of experiment: Growth inhibition of human WiDr cells. The data set is classed as functional.
Data set [13] can be described thus: Growth inhibition of human KATO III cells. The class given is functional.
In another data set the test system is OVCAR-8. As to the kind of experiment: Growth inhibition of human OVCAR8 cells. The class given is functional.
Data set [14] deals with Vascular endothelial growth factor receptor 2 (Homo sapiens, UniProt P35968). Briefly: Inhibition of VEGFR2 (unknown origin).
Sequence of Vascular endothelial growth factor receptor 2 (P35968 whole entry): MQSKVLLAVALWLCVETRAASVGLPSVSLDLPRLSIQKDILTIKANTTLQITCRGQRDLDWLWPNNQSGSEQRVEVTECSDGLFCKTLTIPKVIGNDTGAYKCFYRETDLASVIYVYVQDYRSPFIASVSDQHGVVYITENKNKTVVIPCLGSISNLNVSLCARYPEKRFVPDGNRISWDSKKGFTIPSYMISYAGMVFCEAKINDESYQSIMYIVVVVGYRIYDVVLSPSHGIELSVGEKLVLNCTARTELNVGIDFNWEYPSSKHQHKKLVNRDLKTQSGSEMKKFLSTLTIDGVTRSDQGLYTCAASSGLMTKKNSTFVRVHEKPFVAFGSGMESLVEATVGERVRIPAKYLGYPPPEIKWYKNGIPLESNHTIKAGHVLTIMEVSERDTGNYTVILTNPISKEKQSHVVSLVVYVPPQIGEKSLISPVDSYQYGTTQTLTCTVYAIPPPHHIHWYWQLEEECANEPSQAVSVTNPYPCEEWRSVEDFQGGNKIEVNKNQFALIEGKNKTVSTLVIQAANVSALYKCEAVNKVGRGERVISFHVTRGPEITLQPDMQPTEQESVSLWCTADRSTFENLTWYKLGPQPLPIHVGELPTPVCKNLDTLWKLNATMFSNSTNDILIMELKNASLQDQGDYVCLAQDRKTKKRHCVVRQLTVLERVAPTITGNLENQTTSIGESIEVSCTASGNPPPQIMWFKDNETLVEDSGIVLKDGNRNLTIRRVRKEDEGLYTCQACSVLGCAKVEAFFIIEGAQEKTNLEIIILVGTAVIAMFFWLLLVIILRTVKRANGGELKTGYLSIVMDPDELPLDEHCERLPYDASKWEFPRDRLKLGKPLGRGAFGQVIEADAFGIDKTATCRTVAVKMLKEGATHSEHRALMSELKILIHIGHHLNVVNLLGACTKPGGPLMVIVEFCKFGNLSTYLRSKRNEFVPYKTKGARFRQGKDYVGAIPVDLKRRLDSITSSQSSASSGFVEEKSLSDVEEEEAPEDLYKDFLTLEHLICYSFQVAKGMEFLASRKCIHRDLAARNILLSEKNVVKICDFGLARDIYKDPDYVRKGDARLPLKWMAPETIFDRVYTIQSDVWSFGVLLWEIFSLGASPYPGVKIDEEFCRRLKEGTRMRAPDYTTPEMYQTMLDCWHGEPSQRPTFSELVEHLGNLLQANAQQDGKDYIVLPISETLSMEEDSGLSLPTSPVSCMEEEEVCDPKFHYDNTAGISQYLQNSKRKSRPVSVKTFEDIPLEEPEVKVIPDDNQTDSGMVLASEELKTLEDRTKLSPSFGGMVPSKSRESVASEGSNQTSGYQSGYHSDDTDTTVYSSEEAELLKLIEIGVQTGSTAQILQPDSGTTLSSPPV
Another data set deals with DLD-1. Briefly: Cytotoxicity against human DLD1 cells assessed as reduction in cell viability. The class given is functional, cell-based.
Data set [15] concerns MDA-MB-231. Briefly: Cytotoxicity against human MDA-MB-231 cells assessed as reduction in cell viability. The class given is functional, cell-based.
In another data set the test system is Ishikawa. As to the kind of experiment: Cytotoxicity against human Ishikawa cells assessed as reduction in cell viability. The data set is classed as functional, cell-based.
For data set [16], the system named is MDA-MB-231. As to the kind of experiment: Cytotoxicity against human MDA-MB-231 cells assessed as reduction in cell viability after 96 hrs by MTT assay. The class given is functional, cell-based. The settings on record: MDA-MB-231, 96 h.
The next data set relates to HT-29. As to the kind of experiment: Cytotoxicity against human HT-29 cells assessed as reduction in cell viability after 96 hrs by MTT assay. The settings on record: HT-29, 96 h. The data set is classed as functional, cell-based.
A further data set concerns HCT-116. Briefly: Cytotoxicity against human HCT116 cells assessed as reduction in cell viability after 96 hrs by MTT assay. The class given is functional, cell-based. The settings on record: HCT-116, 96 h.
The subject of another data set is A549. As to the kind of experiment: Cytotoxicity against human A549 cells assessed as reduction in cell viability by MTT assay. The data set is classed as functional, cell-based.
Data set [17] concerns PANC-1. Briefly: Cytotoxicity against human PANC1 cells assessed as reduction in cell viability by MTT assay. The class given is functional, cell-based.

Consider `CCN(CC)c1ccc2cc(C(=O)N3CCN(C(=O)CN4CCN(CCC[C@H]5O[C@@H]6O[C@@]7(C)CC[C@H]8[C@H](C)CC[C@@H]([C@H]5C)[C@@]68OO7)CC4)CC3)c(=O)oc2c1`, for which the IC50 with Hep 3B2, in the data set with HepG2 [1], with OVCAR-3 and in the data set with A2780 was 2.33 to 23.7 µM throughout.

`O=c1[nH]cc(F)c(=O)[nH]1` [FLUOROURACIL]: the “growth inhibition (GI)” value in the data set on HepG2 [2] and in the data set on MCF7 [4] was 11.55 - 95.52% each time. Further, the Survival in [3] was 49 days.

On to `Cc1cc(-c2cc3cc(Cl)ccc3oc2=O)n(-c2nc(-c3ccc(Cl)cc3)cs2)n1`, for which the 50% inhibitory concentration (IC50) lay within 3.06 to 3.74 µM with HepG2 [5] and 4.03 to 31.5 µM in the data set on MCF7 [6].

Regarding `O=c1ccc2ccccc2o1` [COUMARIN], the 50% inhibitory concentration (IC50) with Hep 3B2, in the data set with HepG2 [1], in the data set on OVCAR-3 and in the data set with A2780 was > 100 µM each time.

Take `O=c1oc2ccccc2cc1-c1csc(N/N=C/c2c3ccccc3c(Cl)c3ccccc23)n1`: the results for the IC50 with MCF7 [7], in the data set with HeLa [8] and in the data set with COS-7 were 1.29 to 1.96 µM, 1290 to 1960 nM and 1290 to 1960 nM, respectively. Also, the Survival in [3] amounted to 45.5 days.

Consider `COc1ccccc1-c1cn(Cc2cc(=O)oc3cc(O)c(O)cc23)nn1`, for which the IC50 in the data set with Caco-2, in the data set with K562 and with HeLa [9] was 9.7 to 81.9 µM in each case.

Turning to `Cc1ccc2[nH]c(-c3cc4ccccc4oc3=O)nc2c1`, the GI50 was 70 to 3570 nM in the data set on SK-OV-3; 70 to 3570 nM in the data set on SNU1; 70 to 3570 nM in the data set on PANC-1 [10]; 70 to 3570 nM in the data set on T-24; 70 to 3570 nM in the data set on SN12C; > 10 µM in the data set with MCF7 [11]. Besides, the GI50 (with BXPC-3; in the data set with HepG2 [12]; with AGS; in the data set with WiDr; in data set [13]; with OVCAR-8) was 70 to 3570 nM each time.

`CN(C)c1ccc(C2CC(c3cc4ccccc4oc3=O)=NN2c2nc(-c3ccccc3)c(/N=N/c3ccc(Cl)cc3)s2)cc1` (stereo not drawn): the 50% inhibitory concentration (IC50) in the data set on MCF7 [7] lay in the range of 5.41 to 6.56 µM; in [14], 34 to 582 nM; in the data set on DLD-1, 114 to 129 µM.

With `CCOC(=O)c1cc2cc(-c3nc4cc(C)ccn4c3NC(C)(C)C)cc(C(C)C)c2oc1=O`, the IC50 in the data set with MDA-MB-231 [15], in the data set on MCF7 [7] and in the data set with Ishikawa was 14.1 to 50 µM throughout.

For the compound `Cc1ccc(/N=N/c2sc(N3N=C(c4c(O)c5ccccc5oc4=O)CC3c3ccc(N(C)C)cc3)nc2-c2ccccc2)cc1` (stereo not drawn), the half-maximal inhibitory concentration (IC50) with MCF7 [7] lay in the range of 5.41 to 6.56 µM; in data set [14], 34 to 582 nM; in the data set with DLD-1, 114 to 129 µM.

As for `C[C@H]1[C@@H](OCc2cn(Cc3cc(=O)oc4cc(O)ccc34)nn2)O[C@@H]2O[C@@]3(C)CC[C@H]4[C@H](C)CC[C@@H]1[C@@]24OO3`, the IC50 in the data set on MDA-MB-231 [16], in the data set with HT-29 and with HCT-116 was 8.57 to 100 µM in each case.

In the case of `O=c1oc2ccccc2cc1-c1csc(N/N=C/c2cc([N+](=O)[O-])ccc2Cl)n1`, the IC50 in the data set on MCF7 [7] was in the range of 1.29 to 1.96 µM; with HeLa [8], 1290 to 1960 nM; with COS-7 it was 1290 to 1960 nM. In addition, the Survival in [3] amounted to 39.3 days.

For `COc1cc(Cl)ccc1NS(=O)(=O)c1ccc2oc(=O)ccc2c1`, the IC50 was in the range of 4.63 to 7.02 µM in the data set on HepG2 [2] (Homo sapiens, HepG2); 4.63 to 7.02 µM in the data set on A549; 4.63 to 7.02 µM in the data set on PANC-1 [17].

For the compound `Cc1cc(-c2cc3ccccc3oc2=O)n(-c2nc(-c3ccc(Cl)cc3)cs2)n1`, the IC50 lay within 3.06 to 3.74 µM in the data set on HepG2 [5] and 4.03 to 31.5 µM in the data set on MCF7 [6].

The values above are taken from ChEMBL document CHEMBL4373717, “Coumarin-containing hybrids and their anticancer activities” (Eur J Med Chem, 2019).
